According to publication PMC12121626, “Synthesis, characterization and biological activity of methotrexate-derived salts in lung cancer cells” (RSC Medicinal Chemistry, 2025):
Values after ≈ are worked out from the molar mass of the structure shown. Like-named read-outs stand apart in the source and are kept apart here. Each block holds one compound with its values, some of them ahead of it.

Columns and labels:
[1] = tested on: A549 cells; experiment: Evaluation of apoptosis, annexin V/PI double staining, flow cytometry; format: cell-based, human; conditions: A549, 48 h of exposure to IC50 (DOX 1.5 μM)
Method: A549 cells were seeded on 6-well plates at a density of 2 × 10^5 cells per well and incubated for 48 h with the IC50 of salts ([C12mim]2[MTX], [C10mim]2[MTX], and [C10-3-picoline]2[MTX]) previously determined. Doxorubicin (1.5 μM) was used as a positive control and 0.1% (v/v) DMSO as a vector control. Cells were then detached from the wells and double stained using dead cell apoptosis annexin V (Thermo Fisher Scientific) according to the manufacturer's instructions. The percentage of live cells (unstained), cells in initial apoptosis (stained with annexin V-Alexa Fluor 488), cells in late apoptosis (double stained with annexin V-Alexa Fluor 488 and propidium iodide), or cells in necrosis (stained with propidium iodide) were quantified using an Attune acoustic focusing flow cytometer and the respective software (Thermo Fisher Scientific).
Cellular apoptosis is a process that leads to cell death. Using annexin V and propidium iodide (PI), cells could be divided into live cells, early apoptotic cells, late apoptotic cells, or necrotic cells, based on the differences in plasma membrane of these different stages. PI only enters cells with a permeabilized and/or compromised membrane (late apoptotic and necrotic cells, respectively), while annexin V-FITC binds to phosphatidylserine that translocates from the inner side of the plasma membrane to the outer side, staining cells in initial/late apoptosis.[31]

[2] = design: method as in doi:10.1016/j.trac.2017.09.009; conditions: cited from earlier work
[3] = design: method as in PMID 23292116; conditions: low solubility and low permeability; cited from earlier work
[4] = tested on: A549; experiment: Antiproliferative activity, Cell Titer 96 Aqueous One cell proliferation assay, A549; format: cell-based, human; conditions: for IC50: A549, 48 h of incubation; for SI (A549): selectivity index, IC50 fibroblasts/IC50 A549
Method: (§1) Primary dermal neonatal fibroblasts (PCS-201-010) and lung adenocarcinoma cell lines (A549 and H1975) were acquired from ATCC (Manassas, VA, USA). […] All experiments were conducted at 37 °C, 5% (v/v) CO2, and 99% humidity in the dark. For simplicity, the supplemented media will be referred from now on as DMEM. NSCLC cell lines used in this work represent two different cancer models with different driver mutations[27] (Table 1). […] Doxorubicin (1.5 μM) was used as a positive control and 0.1% (v/v) DMSO was used as a vector control in all biological replicates. After 48 h of incubation, cell viability was measured using the Cell Titer 96® Aqueous One solution cell proliferation assay (Promega, Madison, WI, USA) according to the manufacturer's instructions and procedures described previously.[26,28] The absorbance of the formazan produced was quantified with a Tecan microplate reader (Infinite M200 (Tecan, Mannedorf, Switzerland)) and analysis of the dose–response curves to determine the relative IC50 was performed with GraphPad Prism 8 software (GraphPad Software, La Jolla, CA, USA). The selectivity index (IC50 fibroblasts/IC50 lung cancer cell line) was used as a measurement of the specificity of MTX salts for lung cancer cells.

[5] = Solubility in water, visually determined
Method: To study the solubility and stability of the MTX salts, two different assays were performed. To measure the solubility, 1 μL of water was added dropwise to 1 mg of MTX salt and the solubility was visually determined.

[6] = UV-vis spectroscopy stability assay in DMEM biological medium; format: physicochemical; conditions: 48 h period of the biological assays
[7] = tested on: normal primary human dermal fibroblast; experiment: Cytotoxic effect in normal cells, Cell Titer 96 Aqueous One cell proliferation assay, fibroblasts; format: cell-based; conditions: 48 h of incubation
Method: as §1

[8] = tested on: H1975; experiment: Antiproliferative activity, Cell Titer 96 Aqueous One cell proliferation assay, H1975; format: cell-based, human; conditions: for IC50: H1975, 48 h of incubation; for SI (H1975): selectivity index, IC50 fibroblasts/IC50 H1975
Method: as §1

SMILES: COc1cccc2c1C(=O)c1c(O)c3c(c(O)c1C2=O)C[C@@](O)(C(=O)CO)C[C@@H]3O[C@H]1C[C@H](N)[C@H](O)[C@H](C)O1 [DOX, Doxorubicin, reference compound]
Early apoptosis [1]: 9.3 ± 7.1%
Late apoptosis [1]: 65.25 ± 30.4%
Live cells [1]: 1.7 ± 1.8%
Necrosis [1]: 23.7 ± 26.0%

SMILES: CN(Cc1cnc2nc(N)nc(N)c2n1)c1ccc(C(=O)N[C@@H](CCC(=O)O)C(=O)O)cc1 [MTX, Methotrexate]
pKa (first acidic proton, carboxylic acid) [2]: 2.9
pKa (second acidic proton, carboxylic acid) [2]: 4.6
Class in the biopharmaceutical classification system [3]: class IV
IC50 ([4]; Homo sapiens): > 50 µM
Solubility [5]: 0.01 mg/mL (≈ 22 µM)
Stability in DMEM biological medium [6]: stability was retained

SMILES: CCn1cc[n+](C)c1.CCn1cc[n+](C)c1.CN(Cc1cnc2nc(N)nc(N)c2n1)c1ccc(C(=O)NC(CCC(=O)[O-])C(=O)[O-])cc1 (stereo not drawn) [[C2MIM]2[MTX]]
IC50 [4]: > 50 µM
Solubility ([5]; in water at room temperature): 500.0 mg/mL

IC50 [4]: > 50 µM
SMILES: CCn1cc[n+](C)c1 [[C2MIM][Br], reference compound]

IC50 [4]: > 50 µM
SMILES: Cc1ccc[n+](CCO)c1 [[C2OH 3-picoline][Br], reference compound]

SMILES: CN(Cc1cnc2nc(N)nc(N)c2n1)c1ccc(C(=O)N[C@@H](CCC(=O)[O-])C(=O)[O-])cc1.Cc1ccc[n+](CCO)c1.Cc1ccc[n+](CCO)c1 [[C2OH-3-picoline]2[MTX]]
IC50 [4]: > 50 µM
Solubility ([5]; in water at room temperature): 192.3 mg/mL

SMILES: CN(Cc1cnc2nc(N)nc(N)c2n1)c1ccc(C(=O)NC(CCC(=O)[O-])C(=O)[O-])cc1.C[n+]1ccn(CCO)c1.C[n+]1ccn(CCO)c1 (stereo not drawn) [[C2OHmim]2[MTX]]
IC50 [4]: > 50 µM
Solubility ([5]; in water at room temperature): 476.2 mg/mL

IC50 [4]: > 50 µM
SMILES: C[n+]1ccn(CCO)c1 [[C2OHmim][Br], reference compound]

SMILES: CCCCCCn1cc[n+](C)c1.CCCCCCn1cc[n+](C)c1.CN(Cc1cnc2nc(N)nc(N)c2n1)c1ccc(C(=O)NC(CCC(=O)[O-])C(=O)[O-])cc1 (stereo not drawn) [[C6mim]2[MTX]]
IC50 [4]: > 50 µM

SMILES: CCCCCCCCn1cc[n+](C)c1.CCCCCCCCn1cc[n+](C)c1.CN(Cc1cnc2nc(N)nc(N)c2n1)c1ccc(C(=O)NC(CCC(=O)[O-])C(=O)[O-])cc1 (stereo not drawn) [[C8mim]2[MTX]]
IC50 [4]: > 50 µM

SMILES: CCCCCCCCCC[n+]1cccc(C)c1.CCCCCCCCCC[n+]1cccc(C)c1.CN(Cc1cnc2nc(N)nc(N)c2n1)c1ccc(C(=O)N[C@@H](CCC(=O)[O-])C(=O)[O-])cc1 [[C10-3-picoline]2[MTX]]
IC50 [4]: 0.94 ± 0.03 µM
IC50 in the cancer cell line relative to [Na]2[MTX] ([4]; A549, compared to [Na]2[MTX]): 4.06 fold
SI (A549) [4]: 11.3
IC50 [7]: 10.6 ± 1.03 µM
Solubility ([5]; in water at room temperature): 138.9 mg/mL
IC50 [8]: 29.1 ± 1.46 µM
SI (H1975) [8]: 0.4
Early apoptosis [1]: 14.9 ± 6.5%
Late apoptosis [1]: 9.4 ± 5.6%
Live cells [1]: 75.3 ± 3.0%
Necrosis [1]: 0.02 ± 0.02%

SMILES: CCCCCCCCCC[n+]1cccc(C)c1.[Br-] [[C10-3-picoline][Br], reference compound]
IC50 [4]: 1.03 ± 0.01 µM
SI (A549) [4]: 48.5
IC50 [7]: > 50 µM
IC50 [8]: 29.3 ± 1.47 µM

SMILES: CCCCCCCCCCn1cc[n+](C)c1.CCCCCCCCCCn1cc[n+](C)c1.CN(Cc1cnc2nc(N)nc(N)c2n1)c1ccc(C(=O)N[C@@H](CCC(=O)[O-])C(=O)[O-])cc1 [[C10mim]2[MTX]]
IC50 [4]: 1.71 ± 0.23 µM
SI (A549) [4]: 4.5
IC50 [7]: 7.61 ± 0.88 µM
Solubility ([5]; in water at room temperature): 312.5 mg/mL
IC50 [8]: 14.9 ± 1.17 µM
SI (H1975) [8]: 0.5
Early apoptosis [1]: 14.9 ± 5.0%
Late apoptosis [1]: 10.7 ± 8.1%
Live cells [1]: 73.2 ± 5.0%
Necrosis [1]: 1.1 ± 1.8%

IC50 [4]: 1.1 ± 0.02 µM
IC50 [8]: 19.2 ± 1.28 µM
SMILES: CCCCCCCCCCn1cc[n+](C)c1.[Br-] [[C10mim][Br], reference compound]
SI (A549) [4]: 45.5
IC50 [7]: > 50 µM

SMILES: CCCCCCCCCCCCn1cc[n+](C)c1.CCCCCCCCCCCCn1cc[n+](C)c1.CN(Cc1cnc2nc(N)nc(N)c2n1)c1ccc(C(=O)N[C@@H](CCC(=O)[O-])C(=O)[O-])cc1 [[C12mim]2[MTX]]
IC50 [4]: 0.55 ± 0.25 µM
SI (A549) [4]: 2.9
Solubility ([5]; in water at room temperature): 238.1 mg/mL
IC50 [8]: 2.72 ± 0.43 µM
SI (H1975) [8]: 0.6
Early apoptosis [1]: 16.7 ± 7.3%
Late apoptosis [1]: 10.2 ± 8.3%
Live cells [1]: 72.9 ± 4.1%
Necrosis [1]: 0.1 ± 0.2%

IC50 [4]: 0.6 ± 0.21 µM
IC50 [8]: 10.2 ± 1.01 µM
SMILES: CCCCCCCCCCCCn1cc[n+](C)c1.[Br-] [[C12mim][Br], reference compound]
SI (A549) [4]: 13.83
IC50 [7]: 8.3 ± 0.92 µM
SI (H1975) [8]: 0.8

SMILES: CN(Cc1cnc2nc(N)nc(N)c2n1)c1ccc(C(=O)N[C@@H](CCC(=O)[O-])C(=O)[O-])cc1.C[N+](C)(C)CCO.C[N+](C)(C)CCO [[Choline]2[MTX]]
IC50 [4]: > 50 µM
Increase in solubility in water [5]: 10 fold
Solubility [5]: 1087.0 mg/mL

IC50 [4]: > 50 µM
SMILES: C[N+](C)(C)CCO.[Cl-] [[Choline][Cl], reference compound]

SMILES: CN(Cc1cnc2nc(N)nc(N)c2n1)c1ccc(C(=O)NC(CCC(=O)[O-])C(=O)[O-])cc1.Cn1cc[n+](CCCCCCCCCCCCn2cc[n+](C)c2)c1 (stereo not drawn) [[MIMC12MIM][MTX]]
IC50 [4]: 12.4 ± 1.09 µM

SMILES: CCCCCCCCCC[N+](C)(C)CCO.CCCCCCCCCC[N+](C)(C)CCO.CN(Cc1cnc2nc(N)nc(N)c2n1)c1ccc(C(=O)N[C@@H](CCC(=O)[O-])C(=O)[O-])cc1 [[N10,1,1,2OH]2[MTX]]
IC50 [4]: 19.2 ± 1.28 µM

SMILES: CCCCCCCCCCCC[N+](C)(C)CCO.CCCCCCCCCCCC[N+](C)(C)CCO.CN(Cc1cnc2nc(N)nc(N)c2n1)c1ccc(C(=O)NC(CCC(=O)[O-])C(=O)[O-])cc1 (stereo not drawn) [[N12,1,1,2OH]2[MTX]]
IC50 [4]: 8.55 ± 0.93 µM

SMILES: CN(Cc1cnc2nc(N)nc(N)c2n1)c1ccc(C(=O)N[C@@H](CCC(=O)[O-])C(=O)[O-])cc1.[Na+].[Na+] [[Na]2[MTX]] [reference compound]
IC50 [4]: 3.82 ± 0.58 µM
IC50 [7]: > 50 µM
Solubility ([5]; in water at room temperature): 99.0 mg/mL
IC50 [8]: > 50 µM
